The record followed here is patent US6593342B1, “Pharmaceutical compositions comprising 2-quinolones” (Laboratoire L. Lafon, priority 1998, dated 2003).

The subject of experiment [1] is hormone-sensitive mouse mammary adenocarcinoma MXT (HS-MXT). Description: In vivo antitumor activity, mouse mammary adenocarcinoma HS-MXT. As to the method: (§1) 4.—In Vivo Antitumor Activity in Combination With a Cytotoxic Agent
(§2) The tests were carried out on models of:
hormone-sensitive mouse mammary adenocarcinoma MXT (HS-MXT),
(§3) in the presence or absence of cytotoxic agents such as cyclophosphamide, etoposide, doxorubicin or vincristine.
(§4) When the MTD value of a product was determined, its in vivo antitumor activity was characterized at doses of MTD/2, MTD/4 and MTD/8 on the model of mouse mammary adenocarcinoma HS-MXT and on the model of lymphoma P 388.
(§5) In all the examples presented below, irrespective of the model (mammary adenocarcinoma HS-MXT or lymphoma P 388), the control condition is represented by a batch of 9 mice to which is administered for 5 consecutive weeks and at a rate of 5 administrations (Monday, Tuesday, Wednesday, Thursday and Friday) per week a volume of 0.2 ml of physiological saline containing the solvent used to dissolve the various compounds of formulae (I) and (Ia) used.
The following parameters were determined in these tests:
(§6) i)—The survival rate of the mice
(§7) This survival rate was calculated in the form of a ratio T/C:
(§8) This ratio represents the average survival time of the median mouse from the batch of treated mice relative to the average survival time of the median mouse from the batch of control mice. Thus, a molecule induces a significant (P<0.05) increase in the survival of the animals when the index T/C exceeds 130%. Conversely, it has a toxic effect when this value of T/C is less than 70%.
ii)—The tumor growth [lacuna] by measuring the area of the grafted HS-MXT or P 388 tumors twice a week (Monday and Friday). This area is calculated by multiplying the values of the largest two perpendicular axes of the tumor. The value of these axes is measured using a sliding caliper.
The model of hormone-sensitive MXT (HS-MXT) mouse mammary adenocarcinoma grafted onto 4- to 6-week-old B6D2F1/JIco mice is derived from the milk ducts of the mammary gland (Watson C. et al. Cancer Res. 1977; 37: 3344-48).
Compound 1 is administered alone. The first injection of the product is carried out on the seventh day post-grafting (D7) for four consecutive weeks at a rate of 5 injections per week (Monday, Tuesday, Wednesday, Thursday and Friday) and at a dose of 20 mg/kg.
Cyclophosphamide (CPA) is administered alone. The first injection of the product is carried out on the fourteenth day post-grafting (D14) for three consecutive weeks at a rate of 3 injections per week (Monday, Wednesday and Friday) and at a dose of 10 mg/kg.
Compound 1 is co-administered with cyclophosphamide. In this case, the first injection of compound 1 is carried out on the seventh day post-grafting (D7) for four consecutive weeks at a rate of 5 injections per week (Monday, Tuesday, Wednesday, Thursday and Friday) at a dose of 20 mg/kg, and the first injection of cyclophosphamide is carried out on the fourteenth day post-grafting (D14) for three consecutive weeks at a rate of 3 injections per week (Monday, Wednesday and Friday) at a dose of 10 mg/kg.
Etoposide (ETO) is administered alone. The first injection of the product is carried out on the fourteenth day post-grafting (D14) for three consecutive weeks at a rate of 3 injections per week (Monday, Wednesday and Friday) and at a dose of 10 mg/kg.
Doxorubicin (DOX) is administered alone. The first injection of the product is carried out on the fourteenth day post-grafting (D14) for three consecutive weeks at a rate of 3 injections per week (Monday, Wednesday and Friday) and at a dose of 5 mg/kg.
Compound 1 is co-administered with etoposide.

A further experiment deals with lymphoma P 388. Description: In vivo antitumor activity, lymphoma P 388. Also on record: species or system mouse. Conditions: Table IX; subcutaneous P 388 in CDF1 mice; compound 1 or 20 40 mg/kg 5/week from D5, 5 weeks; VCR 0.63 mg/kg 3/week from D5, 3 weeks. As to the method: as §1, §2, §3, §4, §5, §6, §7, §8
4- to 6-week-old CDF1 mice are grafted with a piece of P 388 tumor (from a tumor bank maintained in the laboratory) subcutaneously into the right flank on day D0. In order to be under conditions close to clinical reality, we waited until the 5th day post-grafting (D5) before starting the treatment. The reason for this was that, after this period of time, the subcutaneous P 388 tumors are palpable.
Compound 1 is administered alone. The first injection of the product is carried out on the 5th day post-grafting (D5) at a rate of 5 injections per week (Monday, Tuesday, Wednesday, Thursday and Friday) for five consecutive weeks-and at a dose of 40 mg/kg.
Compound 20 is administered alone. […]

Setting [2] is: Table V, HS-MXT in B6D2F1/JIco mice, compound 1 20 mg/kg 5/week from D7, 4 weeks, ETO 10 mg/kg or DOX 5 mg/kg 3/week from D14, 3 weeks.

`O=P1(N(CCCl)CCCl)NCCCO1` (stereo not drawn) [CPA, Cyclophosphamide]: the “T/C (survival)” value in experiment [1] (Table IV, HS-MXT in B6D2F1/JIco mice, compound 1 20 mg/kg 5 injections/week from D7, 4 weeks, CPA 10 mg/kg 3 injections/week from D14, 3 weeks) is 122%. Moreover, in experiment [1] (Table VI, HS-MXT tumors, 31st day after graft, 19 administrations of compound 1 (20 mg/kg), 8 of cyclophosphamide (10 mg/kg)), the “Tumor area, reduction (−) or increase (+) compared with control” value was −23.6%.
As for `COc1cccc2c1C(=O)c1c(O)c3c(c(O)c1C2=O)C[C@@](O)(C(=O)CO)C[C@@H]3O[C@H]1C[C@H](N)[C@H](O)[C@H](C)O1` [DOX, Doxorubicin], the “T/C (survival)” value in experiment [1] (setting [2]) was 92.5%.
With `COc1cc([C@@H]2c3cc4c(cc3[C@@H](O[C@@H]3O[C@@H]5CO[C@@H](C)O[C@H]5[C@H](O)[C@H]3O)[C@H]3COC(=O)[C@H]23)OCO4)cc(OC)c1O` [ETO, Etoposide], the “T/C (survival)” value was 130% in experiment [1] (setting [2]) and 124% in experiment [1] (Table VII, HS-MXT, compound 21 40 mg/kg 5/week from D7, 5 weeks, ETO 10 mg/kg 3/week from D7, 3 weeks).
As to `CC[C@]1(O)C[C@H]2CN(CCc3c([nH]c4ccccc34)[C@@](C(=O)OC)(c3cc4c(cc3OC)N(C=O)[C@H]3[C@@](O)(C(=O)OC)[C@H](OC(C)=O)[C@]5(CC)C=CCN6CC[C@]43[C@@H]65)C2)C1` [VCR, Vincristine, reference compound], the “T/C (survival)” value in the experiment with lymphoma P 388 came out at 122%.
